Converted amounts (≈) assume the structure as drawn. Like-named read-outs stand apart in the source and are kept apart here.
Tests used:
[1] = molecular target: Escherichia coli DNA gyrase A/B tetramer (Escherichia coli (strain K12), UniProt P0AES4+P0AES6); assay: DNA gyrase supercoiling activity fluorescence polarisation assay; assay type: biochemical; details: 0.3 mM ATP
Experimental: In a black, 384-well polystyrene assay plate, 30 microliters/well of 5 nM Escherichia coli DNA gyrase A/B tetramer and 130 micrograms/mL of topologically relaxed plasmid containing the triplex-forming sequence
in an assay buffer consisting of 35 mM Tris-HCl (pH 7.5), 24 mM KCl, 4 mM MgCl2, 2 mM dithiothreitol, 1.8 mM spermidine, 5% (v/v) glycerol, 200 nM bovine serum albumin, 0.8% dimethylsulfoxide, and 0.3 mM ATP were incubated at ambient temperature for (typically 30 minutes) in the absence or presence of 5-10 different concentrations of test compound. The supercoiling reactions were quenched by the addition of 10 microliters/well of 40 nM oligodeoxynucleotide probe in 3× triplex-forming buffer consisting of 150 mM NaCl, and 150 mM sodium acetate at pH 3.5. The oligodeoxynucleotide probe was 5′-BODIPY-FL-labeled
After 60 minutes, the fluorescence anisotropy of the BODIPY-FL was measured in a Tecan Ultra plate reader, using 485 nm excitation and 535 nm emission filters equipped with polarizers. The IC50 was determined by nonlinear regression using two control reactions.

[2] = test system: Pseudomonas aeruginosa; assay: Susceptibility testing (MIC) Assay 2, broth microdilution; assay type: cell-based; details: for MIC: PAO1, read-out: Pae MIC; for Pae MIC: PAO1
Experimental: (§1) Minimum Inhibitory Concentrations (MICs) were determined by the broth microdilution method in accordance with the Clinical and Laboratory Standards Institute (CLSI) guidelines. In brief, organism suspensions were adjusted to a 0.5 McFarland standard to yield a final inoculum between 3×10^5 and 7×10^5 colony-forming units (CFU)/mL. Bacterial inocula were generally prepared in sterile, cation adjusted Mueller-Hinton Broth (Becton Dickinson) which included Escherichia coli, Klebsiella pneumoniae, and Pseudomonas aeruginosa. Haemophilus influenzae bacterial inocula were prepared in sterile, cation adjusted Mueller-Hinton Broth (Becton Dickinson) containing 0.5% yeast extract (Becton Dickinson) plus 30 mL of 15 μg/mL Bovine Hematin stock (Sigma), and 3 mL of 15 μg/mL β-nicotinamide adenine dinucleotide (Sigma). Strains of Neisseria were tested for MICs using agar dilution methodology in accordance with CLSI guidelines. For broth microdilution testing, an inoculum volume of 100 μL was added to wells (using a Tecan EVO robot) containing 2 μL of DMSO containing 2-fold serial dilutions of drug. All inoculated microdilution panels were incubated in ambient air at 35° C. for 18-24 hours. Following incubation, the lowest concentration of the drug that prevented visible growth as read at OD600 nm and confirmed by a visual read using a test reading mirror was recorded as the MIC. Performance of the assay was monitored by the use of laboratory quality-control strains and commercially available control compounds with defined MIC spectrums, in accordance with CLSI guidelines. Table 3 provides the MIC results (μM) of Examples 1-77 tested in Assay 2. Table 4 provides the MIC (μg/mL) results of Examples 78-80 tested in Assay 2.

[3] = test system: Klebsiella pneumoniae; assay: as above; assay type: cell-based; details: clinical isolate, mucoid, read-out: Kpn MIC
Experimental: as §1

[4] = test system: Haemophilus influenzae; assay: as above; assay type: cell-based; details: ATCC 51907, in vivo strain, read-out: Hin MIC
Experimental: as §1

[5] = test system: Escherichia coli; assay: as above; assay type: cell-based; details: K12, read-out: Eco MIC
Experimental: as §1

[6] = test system: Streptococcus pneumoniae; assay: Susceptibility testing (MIC) Assay 1, broth microdilution; assay type: cell-based
Experimental: (§2) Minimum Inhibitory Concentrations (MICs) were determined by the broth microdilution method in accordance with the Clinical and Laboratory Standards Institute (CLSI) guidelines. In brief, organism suspensions were adjusted to a 0.5 McFarland standard to yield a final inoculum between 3×10^5 and 7×10^5 colony-forming units (CFU)/mL. Bacterial inocula were prepared for most organisms in sterile, cation adjusted Mueller-Hinton Broth (Beckton Dickinson). The streptococci were prepared as above in cation adjusted Mueller-Hinton Broth to which 2.5% lysed horse blood (Hema Resource & Supply Inc.) was added. An inoculum volume of 100 μL was added to wells (using a Tecan EVO robot) containing 2 μL of DMSO containing 2-fold serial dilutions of drug. All inoculated microdilution trays were incubated in ambient air at 35° C. for 18-24 hours. Following incubation, the lowest concentration of the drug that prevented visible growth as read at OD600 nm and confirmed by a visual read using a test reading mirror was recorded as the MIC. Performance of the assay was monitored by the use of laboratory quality-control strains and commercially available control compounds with defined MIC spectrums, in accordance with CLSI guidelines. Table 1 provides the MIC results (μM) of Examples 1-77 tested in Assay 1. Table 2 provides the MIC (μg/mL) results of Examples 78-80 tested in Assay 1.

[7] = test system: Streptococcus pyogenes; assay: as above; assay type: cell-based; details: Streptococcus pyrgenes, in vivo strain, read-out: Spy MIC
Experimental: as §2

[8] = test system: Staphylococcus aureus; assay: as above; assay type: cell-based
Experimental: as §2

[9] = Eco Gyr FP Mean IC50, E. coli DNA gyrase supercoiling
[10] = ATCC51907, Haemophilus influenzae
[11] = in vivo strain (footnote b), read-out: Spn(b) MIC
[12] = in vivo strain (footnote c), read-out: Spn(c) MIC
[13] = Staphylococcus aureus, Staphylococcus aureus in vivo strain, MSQS, read-out: Sau(d) MIC
[14] = Staphylococcus aureus, in vivo strain, MRQR, read-out: Sau(e) MIC
[15] = Staphylococcus aureus, serum, read-out: Sau(f) MIC
[16] = E. coli DNA gyrase supercoiling, read-out: Eco Gyr FP Mean IC50
[17] = Staphylococcus aureus in vivo strain, MSQS, read-out: Sau(d) MIC

Structure (SMILES)	IC50 [1, 9] [nM]	MIC [2] [µM]	MIC [3] [µM]	MIC [4, 10] [µM]	MIC [5] [µM]	MIC [6, 11] [µM]	MIC [6, 12] [µM]	MIC ([7]; Streptococcus pyogenes) [µM]	MIC [8, 13] [µM]	MIC [8, 14] [µM]	MIC [8, 15] [µM]	IC50 [1, 16] [nM]	Pae MIC [2] [µM]	MIC [4] [µM]	MIC [7] [µM]	MIC [8, 17] [µM]
COC[C@H]1CN(c2noc3c(Cl)c4c(cc23)CC2(C(=O)NC(=O)NC2=O)[C@H]2[C@H](C)O[C@H](C)CN42)C(=O)O1 [Example 21, (2R,4S,4aS)-11-Chloro-8-[(5R)-4-(methoxymethyl)-2-oxo-1,3-oxazolidin-3-yl]-2,4-dimethyl-1,2,4,4a-tetrahydro-2′H,6H-spiro[1,4-oxazino[4,3-a][1,2]oxazolo[4,5-g]quinoline-5,5′-pyrimidine]-2′,4′,6′(1′H,3′H)-trione]	540	> 200	200 (≈ 107 µg/mL)	1.6 (≈ 0.854 µg/mL)	50 (≈ 26.7 µg/mL)	1.6 (≈ 0.854 µg/mL)	1.6 (≈ 0.854 µg/mL)	0.78 (≈ 0.416 µg/mL)	0.78 (≈ 0.416 µg/mL)	3.1 (≈ 1.66 µg/mL)	3.1 (≈ 1.66 µg/mL)	–	–	–	–	–
C[C@@H]1CN(c2noc3c(Cl)c4c(cc23)CC2(C(=O)NC(=O)NC2=O)[C@H]2[C@H](C)O[C@H](C)CN42)C(=O)O1 [Example 22]	210	> 200	200 (≈ 101 µg/mL)	0.78 (≈ 0.393 µg/mL)	12 (≈ 6.05 µg/mL)	0.39 (≈ 0.197 µg/mL)	0.39 (≈ 0.197 µg/mL)	0.39 (≈ 0.197 µg/mL)	< 0.2	0.78 (≈ 0.393 µg/mL)	0.78 (≈ 0.393 µg/mL)	–	–	–	–	–
C[C@@H]1CN2c3c(cc4c(N5C(=O)O[C@H](C)[C@@H]5C)noc4c3F)CC3(C(=O)NC(=O)NC3=O)[C@H]2[C@H](C)O1 [Example 23]	520	> 200	100 (≈ 50.1 µg/mL)	0.39 (≈ 0.196 µg/mL)	6.2 (≈ 3.11 µg/mL)	0.78 (≈ 0.391 µg/mL)	0.78 (≈ 0.391 µg/mL)	0.39 (≈ 0.196 µg/mL)	0.39 (≈ 0.196 µg/mL)	0.78 (≈ 0.391 µg/mL)	0.78 (≈ 0.391 µg/mL)	–	–	–	–	–
C[C@@H]1CN2c3c(cc4c(N5C(=O)O[C@@H](C)[C@H]5C)noc4c3F)CC3(C(=O)NC(=O)NC3=O)[C@H]2[C@H](C)O1 [Example 24]	> 2100	> 200	> 200	3.1 (≈ 1.55 µg/mL)	50 (≈ 25.1 µg/mL)	1.6 (≈ 0.802 µg/mL)	1.6 (≈ 0.802 µg/mL)	0.78 (≈ 0.391 µg/mL)	0.39 (≈ 0.196 µg/mL)	1.6 (≈ 0.802 µg/mL)	1.6 (≈ 0.802 µg/mL)	–	–	–	–	–
C=CC[C@H]1COC(=O)N1c1noc2c(F)c3c(cc12)CC1(C(=O)NC(=O)NC1=O)[C@H]1[C@H](C)O[C@H](C)CN31 [Example 25, (2R,4S,4aS)-8-((S)-4-Allyl-2-oxooxazolidin-3-yl)-11-fluoro-2,4-dimethyl-2,4,4a,6-tetrahydro-1H,1′H-spiro[isoxazolo[4,5-g][1,4]oxazino[4,3-a]quinoline-5,5′-pyrimidine]-2′,4′,6′(3′H)-trione]	260	> 200	200 (≈ 103 µg/mL)	0.78 (≈ 0.401 µg/mL)	12 (≈ 6.16 µg/mL)	0.78 (≈ 0.401 µg/mL)	0.78 (≈ 0.401 µg/mL)	0.78 (≈ 0.401 µg/mL)	0.39 (≈ 0.2 µg/mL)	0.39 (≈ 0.2 µg/mL)	1.6 (≈ 0.822 µg/mL)	–	–	–	–	–
C[C@@H]1CN2c3c(cc4c(N5C[C@@H](CO)OC5=O)noc4c3F)CC3(C(=O)NC(=O)NC3=O)[C@H]2[C@H](C)O1 [Example 26, (2R,4S,4aS)-11-Fluoro-8-((S)-5-(hydroxymethyl)-2-oxooxazolidin-3-yl)-2,4-dimethyl-2,4,4a,6-tetrahydro-1H,1′H-spiro[isoxazolo[4,5-g][1,4]oxazino[4,3-a]quinoline-5,5′-pyrimidine]-2′,4′,6′(3′H)-trione]	170	> 200	> 200	< 0.2	25 (≈ 12.6 µg/mL)	0.28 (≈ 0.141 µg/mL)	0.55 (≈ 0.277 µg/mL)	< 0.2	2.2 (≈ 1.11 µg/mL)	12 (≈ 6.04 µg/mL)	1.6 (≈ 0.806 µg/mL)	–	–	–	–	–
C[C@@H]1CN2c3c(cc4c(N5C(=O)OC[C@H]5C5CCOCC5)noc4c3F)CC3(C(=O)NC(=O)NC3=O)[C@H]2[C@H](C)O1 [Example 27]	–	–	>200	–	100 (≈ 55.8 µg/mL)	0.78 (≈ 0.435 µg/mL)	0.78 (≈ 0.435 µg/mL)	–	–	3.1 (≈ 1.73 µg/mL)	1.6 (≈ 0.892 µg/mL)	530	>200	0.39 (≈ 0.217 µg/mL)	0.78 (≈ 0.435 µg/mL)	0.78 (≈ 0.435 µg/mL)
C[C@@H]1CN2c3c(cc4c(N5C(=O)OC[C@@H]5C5CCOCC5)noc4c3F)CC3(C(=O)NC(=O)NC3=O)[C@H]2[C@H](C)O1 [Example 28]	–	–	>200	–	>200	25 (≈ 13.9 µg/mL)	25 (≈ 13.9 µg/mL)	–	–	50 (≈ 27.9 µg/mL)	50 (≈ 27.9 µg/mL)	> 2100	>200	25 (≈ 13.9 µg/mL)	25 (≈ 13.9 µg/mL)	25 (≈ 13.9 µg/mL)
C[C@@H]1CN2c3c(cc4c(N5C(=O)OC[C@@H]5CCCO)noc4c3F)CC3(C(=O)NC(=O)NC3=O)[C@H]2[C@H](C)O1 [Example 29, (2R,4S,4aS)-11-Fluoro-8-((S)-4-(3-hydroxypropyl)-2-oxooxazolidin-3-yl)-2,4-dimethyl-2,4,4a,6-tetrahydro-1H,1′H-spiro[isoxazolo[4,5-g][1,4]oxazino[4,3-a]quinoline-5,5′-pyrimidine]-2′,4′,6′(3′H)-trione]	270	> 200	> 200	0.78 (≈ 0.415 µg/mL)	100 (≈ 53.1 µg/mL)	0.39 (≈ 0.207 µg/mL)	0.78 (≈ 0.415 µg/mL)	0.39 (≈ 0.207 µg/mL)	3.1 (≈ 1.65 µg/mL)	12 (≈ 6.38 µg/mL)	3.1 (≈ 1.65 µg/mL)	–	–	–	–	–
C[C@@H]1CN2c3c(cc4c(N5C(=O)OC[C@@H]5CCCF)noc4c3F)CC3(C(=O)NC(=O)NC3=O)[C@H]2[C@H](C)O1 [Example 30, (2R,4S,4aS)-11-Fluoro-8-((S)-4-(3-fluoropropyl)-2-oxooxazolidin-3-yl)-2,4-dimethyl-2,4,4a,6-tetrahydro-1H,1′H-spiro[isoxazolo[4,5-g][1,4]oxazino[4,3-a]quinoline-5,5′-pyrimidine]-2′,4′,6′(3′H)-trione]	500	> 200	200 (≈ 107 µg/mL)	0.39 (≈ 0.208 µg/mL)	25 (≈ 13.3 µg/mL)	0.39 (≈ 0.208 µg/mL)	0.39 (≈ 0.208 µg/mL)	0.39 (≈ 0.208 µg/mL)	< 0.2	0.78 (≈ 0.416 µg/mL)	0.78 (≈ 0.416 µg/mL)	–	–	–	–	–
